Results from US9724338B2, “Methods of using (+)-1,4-dihydro-7-[(3S,4S)-3-methoxy-4-(methylamino)-1-pyrrolidinyl]-4-OXO-1-(2-thiazolyl)-1,8-naphthyridine-3-carboxylic acid for treatment of antecedent hematologic disorders” (SUNESIS PHARMACEUTICALS, INC., priority 2007, dated 2017).

How the values were obtained:
[1] = test system: advanced or refractory acute leukemias; assay: Clinical study: dose-escalating treatment of acute leukemia with SNS-595 (Example 4); type: in vivo, human
Excerpt: Minimum cycle length was 42 days for Arm A and 39 days for Arm B, respectively. Additional cycles were permitted if patients achieved stable disease or better. […] Pre- and post-dose bone marrow aspirates were obtained from a subset of patients to assess biomarkers.

[2] = test system: relapsed CMML (transformed to AML); assay: Clinical study: treatment with SNS-595 of a patient with relapsed CMML (Example 3); type: in vivo, human; conditions: 50 mg/m^2 twice a week; for Marrow blasts: slow IV push
Description: A patient with relapsed CMML (transformed to AML) was enrolled. The patient was diagnosed about 17 months prior to the study, was treated with 1 cycle of a Southwest Oncology Group (SWOG) regimen after diagnosis. They were given 4 cycles of azacitidine (Vidaza®) about 14 months prior to the study and 1 cycle of decitabine, about 6 months before the study.

[3] = test system: MDS that had transformed to refractory CMML (progressed to AML); assay: Clinical study: treatment with SNS-595 of a patient with MDS transformed to refractory CMML (Example 2); type: in vivo, human; conditions: 72 mg/m^2 once per week for three weeks; for Peripheral Blasts: slow IV push
Description: A patient with MDS that had transformed to refractory CMML was enrolled in this study. The patient was diagnosed about 26 months prior to the study and was given 8 cycles of azacitadine (Vidaza®) about 10 months prior to the study. They were then treated with mitoxantrone+VP16 for 1 cycle, about 4 months prior to the study. […] The patient had initial marrow blast count of 39%. The following observations were noted on days 15 and 35.

[4] = Solubility of SNS-595 in compositions for injection or intravenous infusion (Example 1); type: physicochemical; conditions: Acidic compositions (<pH 4)
Excerpt: The resulting composition is also suitable for lyophilization. The lyophilized form is then reconstituted with sterile water to the appropriate concentration prior to use.

[5] = Arm A, weekly x3, dose escalation to 90 mg/m^2

SMILES: CN[C@H]1CN(c2ccc3c(=O)c(C(=O)O)cn(-c4nccs4)c3n2)C[C@@H]1OC [SNS-595, (+)-1,4-dihydro-7-[(3S,4S)-3-methoxy-4-(methylamino)-1-pyrrolidinyl]-4-oxo-1-(2-thiazolyl)-1,8-naphthyridine-3-carboxylic acid]
- Dose-limiting toxicity (DLT) ([1]; Arm A, 27 mg/m^2 weekly dose (also had progressive disease)): G4 myelosuppression
- Complete Responses (CR) ([1]; Arm A, 50 mg/m^2 dose level): 1 patient
- Dose-limiting toxicity (DLT) ([1]; Arm A, 50 mg/m^2 weekly dose): prolonged myelosuppression
- Response of a patient with AML and splenomegaly ([1]; Arm A, 72 mg/m^2): clinical benefit with reduction in splenomegaly and blast counts
- Dose-limiting toxicity (DLT) ([1]; Arm A, 72 mg/m^2 weekly dose): bowel obstruction
- Clinical activity: reductions in marrow blasts to ≦5% ([1]; Arm A, doses at or above 50 mg/m^2): 5 patients
- Drug-related G3 & 4 events: diarrhea ([1]; Arm A, weekly x3): 1 patient
- Drug-related G3 & 4 events: stomatitis ([1]; Arm A, weekly x3): 3 patients
- Non-dose-limiting toxicities (non-DLTs) [1, 5]: nausea/vomiting and diarrhea
- Number of dose-limiting toxicities (DLTs) observed [1, 5]: Three
- Clinical activity: reductions in marrow blasts to ≦5% ([1]; Arm B, 40 mg/m^2): 1 patient
- Complete Responses (CR) ([1]; Arm B, 40 mg/m^2 level): 1 patient
- Response of a patient with AML and splenomegaly ([1]; Arm B, 50 mg/m^2 dose level, patient had G3 mucositis): partial response
- G3 mucositis ([1]; Arm B, twice weekly x2, 40 mg/m^2): two patients out of 11
- Dose-limiting toxicity (DLT) of Grade (G) 3 mucositis ([1]; Arm B, twice weekly x2, 50 mg/m^2 dose level): 3 patients
- Tolerability in patients with advanced leukemias ([1]; Arms A and B): well-tolerated
- Clinical outcome of treatment ([2]; one patient): clinical benefit (i.e. hematological improvement) with reduction in blast counts
- Absolute neutrophil count (ANC) ([2]; At the time of undergoing treatment with third cycle): 1600
- Marrow blasts ([2]; Post Cycle 1, baseline 20% blasts): 8%
- Circulating blasts ([2]; Post Cycle 2): 4%
- Marrow blasts ([2]; Post Cycle 2): 1%
- Circulating blasts ([2]; Post Cycle 3): 8%
- Circulating blasts ([2]; Post Cycle 4): 12%
- Clinical outcome of treatment ([3]; one patient): clinical benefit with reduction in splenomegaly and blast counts
- Ultimate disease status ([3]; one patient): progressive disease
- White blood cell (WBC) count, earlier value ('was') ([3]; Around Day 35, before rise with Necrotizing fasciitis (NF) infection): 7000
- Absolute neutrophil count (ANC) ([3]; Around Day 35): 3139
- Peripheral Blasts ([3]; Around Day 35, one patient): 33%
- White blood cell (WBC) count ([3]; Around Day 35, patient had Necrotizing fasciitis (NF) infection): 16000
- Absolute neutrophil count (ANC) ([3]; Day 15): 94
- White blood cell (WBC) count ([3]; Day 15): 600
- Peripheral Blasts ([3]; Day 15, one patient): No blasts
- Solubility [4]: increased solubility
